Data taken from patent US12415785B2, “Compound modulators of sting” (CTXT PTY LTD, priority 2019, dated 2025).

Legend:
human STING (WT) = human STING (WT) (Homo sapiens (Human), UniProt Q86WV6, H232R); assay: Differential scanning fluorimetry (DSF), huSTING (WT); assay type: binding; conditions: 2 μM protein, compound 100 μM; Tm with ligand minus Tm of protein alone (1% DMSO); read-out: DSF huSTING (WT) ΔTm (° C.)
Outline: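 Recombinant His-TEV-tagged human STING allelic variants expressed in E. coli and purified by IMAC. Thermal unfolding followed by dye fluorescence (excitation 490 nm, emission 570 nm) from 20° C. to 100° C. in 0.5° C. steps, in triplicate, with and without ligand; Tm taken from the transition inflection point.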

[1] = biological target: human HAQ isoform of STING (THP-1 STING Lucia ISG cells) (Homo sapiens (Human), UniProt Q86WV6, G230A/H232R/R293Q/R71H); assay: THP-1 STING Lucia ISG reporter cell line assay; assay type: cell-based; conditions: 24 h incubation, QUANTI-Luc luminescence
Chain of human HAQ isoform of STING (THP-1 STING Lucia ISG cells) (Q86WV6 whole entry R71H/G230A/H232R/R293Q, canonical isoform): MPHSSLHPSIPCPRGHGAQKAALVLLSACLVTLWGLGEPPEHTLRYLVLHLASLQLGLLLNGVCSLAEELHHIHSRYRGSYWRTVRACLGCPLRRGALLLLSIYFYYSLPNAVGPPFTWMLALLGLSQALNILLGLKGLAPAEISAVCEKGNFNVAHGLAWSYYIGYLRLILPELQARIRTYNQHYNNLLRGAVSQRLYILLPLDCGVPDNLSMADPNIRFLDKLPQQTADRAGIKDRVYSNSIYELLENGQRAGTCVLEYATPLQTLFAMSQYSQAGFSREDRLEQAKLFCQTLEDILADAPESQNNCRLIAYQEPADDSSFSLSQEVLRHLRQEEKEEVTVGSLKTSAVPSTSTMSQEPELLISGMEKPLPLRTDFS
Outline: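 THP-1 STING Lucia ISG cells (HAQ STING) or THP-1-Dual KI-hSTING-R232 cells (WT STING) treated 24 h at 37 °C with 11-point, 2.5-fold compound dilutions. ISG-driven Lucia luciferase read by luminescence, normalised to untreated wells and 40 μM ML RR-S2 CDA positive control; EC50 derived.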

Chain of human STING (WT) (Q86WV6 other isoform, or with tags, fused parts or gaps, stated change not applied): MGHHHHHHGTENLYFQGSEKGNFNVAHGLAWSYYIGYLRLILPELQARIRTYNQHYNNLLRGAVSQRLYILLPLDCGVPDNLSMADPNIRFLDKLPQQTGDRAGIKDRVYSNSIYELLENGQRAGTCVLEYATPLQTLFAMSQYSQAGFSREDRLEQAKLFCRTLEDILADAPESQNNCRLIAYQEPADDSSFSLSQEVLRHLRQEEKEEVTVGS

Structure (SMILES): COc1c(C(N)=O)ccc2c1nc(-c1ccc(Cl)cc1C(=O)O)n2C/C=C/Cn1c(-c2ccc(Cl)cc2C(=O)O)nc2c(OC)c(C(N)=O)ccc21 [Example 34, (E)-6,6′-(But-2-ene-1,4-diylbis(5-carbamoyl-4-methoxy-1H-benzo[d]imidazole-1,2-diyl))bis(3-chlorobenzoic acid)]
- ΔTm at 100 µM (human STING (WT)): -2.39 °C
- EC50 [1]: > 40000 nM

Structure (SMILES): COc1c(C(N)=O)ccc2c1nc(-c1ccc(Cl)cc1C(=O)O)n2CCCn1c(-c2ccc(Cl)cc2C(=O)O)nc2c(OC)c(C(N)=O)ccc21 [Example 35, 6,6′-(Propane-1,3-diylbis(5-carbamoyl-4-methoxy-1H-benzo[d]imidazole-1,2-diyl))bis(3-chlorobenzoic acid)]
- ΔTm at 100 µM (human STING (WT)): -2.51 °C
- EC50 [1]: > 40000 nM

Structure (SMILES): COc1c(C(N)=O)ccc2c1nc(-c1cccc(Br)c1C(=O)O)n2CCn1c(-c2cccc(Br)c2C(=O)O)nc2c(OC)c(C(N)=O)ccc21 [Example 36, 6,6′-(Ethane-1,2-diylbis(5-carbamoyl-4-methoxy-1H-benzo[d]imidazole-1,2-diyl))bis(2-bromobenzoic acid)]
- ΔTm at 100 µM (human STING (WT)): 2.04 °C
- EC50 [1]: > 40000 nM

Structure (SMILES): COc1c(C(N)=O)ccc2c1nc(-c1ccc(Cl)c(Cl)c1-c1nn[nH]n1)n2CCn1c(-c2ccc(Cl)c(Cl)c2-c2nn[nH]n2)nc2c(OC)c(C(N)=O)ccc21 [Example 37, 1,1′-(Ethane-1,2-diyl)bis(2-(3,4-dichloro-2-(2H-tetrazol-5-yl)phenyl)-4-methoxy-1H-benzo[d]imidazole-5-carboxamide)]
- ΔTm at 100 µM (human STING (WT)): -0.24 °C
- EC50 [1]: > 40000 nM

Structure (SMILES): COc1c(C(N)=O)ccc2c1nc(-c1ccc(C(F)(F)F)cc1C(=O)O)n2CCn1c(-c2ccc(C(F)(F)F)cc2C(=O)O)nc2c(OC)c(C(N)=O)ccc21 [Example 38, 6,6′-(Ethane-1,2-diylbis(5-carbamoyl-4-methoxy-1H-benzo[d]imidazole-1,2-diyl))bis(3-(trifluoromethyl)benzoic acid)]
- ΔTm at 100 µM (human STING (WT)): 0.38 °C
- EC50 [1]: > 40000 nM

Structure (SMILES): COc1c(C(N)=O)ccc2c1nc(-c1cccc(Cl)c1-c1nn[nH]n1)n2CCn1c(-c2cccc(Cl)c2-c2nn[nH]n2)nc2c(OC)c(C(N)=O)ccc21 [Example 40, 1,1′-(Ethane-1,2-diyl)bis(2-(3-chloro-2-(2H-tetrazol-5-yl)phenyl)-4-methoxy-1H-benzo[d]imidazole-5-carboxamide)]
- ΔTm at 100 µM (human STING (WT)): -7.45 °C
- EC50 [1]: > 40000 nM

Structure (SMILES): COc1ccc(-c2nc3c(OC)c(C(N)=O)ccc3n2CCn2c(-c3ccc(OC)cc3C(=O)O)nc3c(OC)c(C(N)=O)ccc32)c(C(=O)O)c1 [Example 41, 6,6′-(Ethane-1,2-diylbis(5-carbamoyl-4-methoxy-1H-benzo[d]imidazole-1,2-diyl))bis(3-methoxybenzoic acid)]
- ΔTm at 100 µM (human STING (WT)): 1.09 °C
- EC50 [1]: > 40000 nM

Structure (SMILES): COc1c(C(N)=O)ccc2c1nc(-c1cc(Cl)ccc1-c1nn[nH]n1)n2CCn1c(-c2cc(Cl)ccc2-c2nn[nH]n2)nc2c(OC)c(C(N)=O)ccc21 [Example 42, 1,1′-(Ethane-1,2-diyl)bis(2-(5-chloro-2-(2H-tetrazol-5-yl)phenyl)-4-methoxy-1H-benzo[d]imidazole-5-carboxamide)]
- ΔTm at 100 µM (human STING (WT)): 2.04 °C
- EC50 [1]: 3210 nM

Structure (SMILES): COc1c(C(N)=O)ccc2c1nc(-c1c(F)cc(F)cc1-c1nn[nH]n1)n2CCn1c(-c2c(F)cc(F)cc2-c2nn[nH]n2)nc2c(OC)c(C(N)=O)ccc21 [Example 43, 1,1′-(Ethane-1,2-diyl)bis(2-(2,4-difluoro-6-(2H-tetrazol-5-yl)phenyl)-4-methoxy-1H-benzo[d]imidazole-5-carboxamide)]
- ΔTm at 100 µM (human STING (WT)): 9.87 °C
- EC50 [1]: 574 nM

Structure (SMILES): COc1c(C(N)=O)ccc2c1nc(-c1c(F)cc(F)cc1-c1n[nH]c(=O)o1)n2CCn1c(-c2c(F)cc(F)cc2-c2n[nH]c(=O)o2)nc2c(OC)c(C(N)=O)ccc21 [Example 44, 1,1′-(Ethane-1,2-diyl)bis(2-(2,4-difluoro-6-(5-oxo-4,5-dihydro-1,3,4-oxadiazol-2-yl)phenyl)-4-methoxy-1H-benzo[d]imidazole-5-carboxamide)]
- ΔTm at 100 µM (human STING (WT)): 0.88 °C
- EC50 [1]: 558 nM

Structure (SMILES): COc1c(C(N)=O)ccc2c1nc(-c1c(F)cc(Cl)cc1Br)n2CCn1c(-c2c(F)cc(Cl)cc2Br)nc2c(OC)c(C(N)=O)ccc21 [Example 45, 1,1′-(Ethane-1,2-diyl)bis(2-(2-bromo-4-chloro-6-fluorophenyl)-4-methoxy-1H-benzo[d]imidazole-5-carboxamide)]
- ΔTm at 100 µM (human STING (WT)): -0.34 °C
- EC50 [1]: 6790 nM

Structure (SMILES): COc1c(C(N)=O)ccc2c1nc(-c1c(F)cc(Cl)cc1-c1nn[nH]n1)n2CCn1c(-c2c(F)cc(Cl)cc2-c2nn[nH]n2)nc2c(OC)c(C(N)=O)ccc21 [Example 46, 1,1′-(Ethane-1,2-diyl)bis(2-(4-chloro-2-fluoro-6-(2H-tetrazol-5-yl)phenyl)-4-methoxy-1H-benzo[d]imidazole-5-carboxamide)]
- ΔTm at 100 µM (human STING (WT)): 14.4 °C
- EC50 [1]: 218 nM

Structure (SMILES): COc1c(C(N)=O)ccc2c1nc(-c1c(F)cccc1-c1nn[nH]n1)n2CCn1c(-c2c(F)cccc2-c2nn[nH]n2)nc2c(OC)c(C(N)=O)ccc21 [Example 48, 1,1′-(Ethane-1,2-diyl)bis(2-(2-fluoro-6-(2H-tetrazol-5-yl)phenyl)-4-methoxy-1H-benzo[d]imidazole-5-carboxamide)]
- ΔTm at 100 µM (human STING (WT)): 11.8 °C
- EC50 [1]: 415 nM

Structure (SMILES): COc1c(C(N)=O)ccc2c1nc(-c1c(F)cccc1-c1n[nH]c(=O)o1)n2CCn1c(-c2c(F)cccc2-c2n[nH]c(=O)o2)nc2c(OC)c(C(N)=O)ccc21 [Example 49, 1,1′-(Ethane-1,2-diyl)bis(2-(2-fluoro-6-(5-oxo-4,5-dihydro-1,3,4-oxadiazol-2-yl)phenyl)-4-methoxy-1H-benzo[d]imidazole-5-carboxamide)]
- ΔTm at 100 µM (human STING (WT)): 10.2 °C
- EC50 [1]: 136 nM

Structure (SMILES): COc1c(C(N)=O)ccc2c1nc(-c1c(F)cc(Cl)cc1-c1n[nH]c(=O)o1)n2CCn1c(-c2c(F)cc(Cl)cc2-c2n[nH]c(=O)o2)nc2c(OC)c(C(N)=O)ccc21 [Example 50, 1,1′-(Ethane-1,2-diyl)bis(2-(4-chloro-2-fluoro-6-(5-oxo-4,5-dihydro-1,3,4-oxadiazol-2-yl)phenyl)-4-methoxy-1H-benzo[d]imidazole-5-carboxamide)]
- ΔTm at 100 µM (human STING (WT)): 12.5 °C
- EC50 [1]: 174 nM
